How the values were obtained:
MEK1 kinase = biological target: MEK1 kinase; design: method as in Iverson et al., 2009; details: ref Iverson et al., 2009; cited from earlier work
MEK2 kinase = biological target: MEK2 kinase; design: method as in Iverson et al., 2009; details: ref Iverson et al., 2009; cited from earlier work
hERG channel = system: hERG channel; design: method as in Food and Drug Administration, 2015; details: ref Food and Drug Administration, 2015; cited from earlier work
Calu-6 = assay: Cell proliferation assay (MTT/MTS); details: Homo sapiens, Calu-6, read-out: IC50 ± SEM
Protocol: (§1) All cell lines were authenticated by short tandem repeat analysis and maintained following the ATCC instructions. […] Anti-proliferation activity was analyzed using the 3-(4,5-dimethylthiazole-2-yl)-2,5-diphenyl-2H-tetrazolium bromide (MTT) or (3-(4,5-dimethylthiazol-2-yl)-5-(3-carboxymethoxyphenyl)-2 -(4-sulfophenyl)-2H-tetrazolium) (MTS) assay.
(§2) Cells were seeded into 96-well plates at an appropriate density, and 24 h later, diluted drug in different concentrations was added to each test well in triplicate. The cell viability was tested 5 days (H358 was analyzed for 7 days) after the cells were plated according to the procedure originally described by Mosmann [1]. Survival rate was calculated using the formula: Survival rate = (Mean absorbance of experimental wells-Mean absorbance of DMSO wells) / (Mean absorbance of control wells-Mean absorbance of DMSO wells) × 100%. IC50 was determined from the regression of a plot of the logarithm of the concentration versus survival rate by GraphPad Prism 6 using the non-linear regression Dose–Response Inhibition (four parameters) Model.

A375 = assay: Cell proliferation assay (MTT/MTS); details: Homo sapiens, A-375, read-out: IC50 ± SEM
Protocol: as §1
(§3) A375, HT-29 and Calu-6 cell lines were purchased from the typical culture preservation commission cell bank of the Chinese Academy of Sciences in China. […] H358 cell line was obtained from EK-bioscience. Cells were seeded into 96-well plates at an appropriate density, and 24 h later, diluted drug in different concentrations was added to each test well in triplicate. The cell viability was tested 5 days (H358 was analyzed for 7 days) after the cells were plated according to the procedure originally described by Mosmann [1]. Survival rate was calculated using the formula: Survival rate = (Mean absorbance of experimental wells-Mean absorbance of DMSO wells) / (Mean absorbance of control wells-Mean absorbance of DMSO wells) × 100%. IC50 was determined from the regression of a plot of the logarithm of the concentration versus survival rate by GraphPad Prism 6 using the non-linear regression Dose–Response Inhibition (four parameters) Model.

Colo-829 = assay: Cell proliferation assay (MTT/MTS); details: Homo sapiens, COLO-829, read-out: IC50 ± SEM
Protocol: as §1, §2

HT-29 = assay: Cell proliferation assay (MTT/MTS); details: Homo sapiens, HT-29, read-out: IC50 ± SEM
Protocol: as §1, §2

COLO 205 cells = assay: Apoptosis assay by flow cytometry; details: 48 h, control 21.9%
Protocol: (§4) Cell lines were inoculated at the density of 2×10^4 cells per well in a 6-well plate and cultured overnight. […] The cell cycle or apoptosis analysis was performed by flow cytometry.
(§5) Tumor cell lines were inoculated in 6-well plates at a density of 2×10^4 cells/well. […] Both apoptosis and cell cycle were measured by flow cytometry (Accuri C6, BD biosciences).

A375 cells = assay: Apoptosis assay by flow cytometry; details: 48 h
Protocol: as §4, §5

MRC-5 = assay: Cell proliferation assay (MTT/MTS); details: Homo sapiens, MRC5, read-out: IC50 ± SEM
Protocol: as §1, §3

[1] = design: method as in Infante et al., 2012; details: requires DMSO as co-solvate; ref Infante et al., 2012; cited from earlier work
H1975 = assay: Cell proliferation assay (MTT/MTS); details: Homo sapiens, NCI-H1975, read-out: IC50 ± SEM
Protocol: as §1, §3

[2] = cited from earlier work
A549 = assay: Cell proliferation assay (MTT/MTS); details: Homo sapiens, A549, read-out: IC50 ± SEM
Protocol: as §1, §2

COLO 205 = assay: Cell proliferation assay (MTT/MTS); details: Homo sapiens, COLO 205, read-out: IC50 ± SEM
Protocol: as §1, §3

HL-60 = assay: Cell proliferation assay (MTT/MTS); details: Homo sapiens, HL-60, read-out: IC50 ± SEM
Protocol: as §1, §3

MEK1/MAP2K1(h) = MEK1/MAP2K1(h) (Homo sapiens, UniProt Q02750); assay: MEK1 inhibition, comparison of tunlametinib and MEK162 (Caliper EZ Reader)
Sequence of MEK1/MAP2K1(h) (Q02750 whole entry): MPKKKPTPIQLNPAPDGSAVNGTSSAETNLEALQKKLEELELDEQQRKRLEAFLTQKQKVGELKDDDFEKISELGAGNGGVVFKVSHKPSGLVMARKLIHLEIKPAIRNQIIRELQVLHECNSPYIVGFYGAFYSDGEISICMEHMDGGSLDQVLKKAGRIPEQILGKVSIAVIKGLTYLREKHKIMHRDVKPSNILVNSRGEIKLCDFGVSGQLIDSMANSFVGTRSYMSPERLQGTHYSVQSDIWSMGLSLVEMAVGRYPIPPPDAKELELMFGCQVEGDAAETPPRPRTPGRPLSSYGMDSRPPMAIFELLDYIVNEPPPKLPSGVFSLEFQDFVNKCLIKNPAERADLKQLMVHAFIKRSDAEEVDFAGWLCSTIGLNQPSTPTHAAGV
Protocol: Kinase inhibition activity against MEK1 was conducted in Cerep (France) and Sundia (Shanghai, China).
The signals were measured using Caliper EZ Reader and the data were analyzed.

Row | Structure (SMILES) | IC50 (Calu-6) | IC50 (A375) | IC50 (Colo-829) | IC50 (HT-29) | apoptosis-inducing effect (A375 cells) | IC50 (MRC-5) | IC50 (H1975) | IC50 (A549) | IC50 (COLO 205) | IC50 (HL-60) | also measured
1 | COc1cc(F)c(F)c(Nc2ccc(I)cc2F)c1NS(=O)(=O)C1(C[C@H](O)CO)CC1 [REDA119] |  |  |  |  |  |  |  |  |  |  | IC50 (MEK1 kinase): 19 nM; IC50 (MEK2 kinase): 47 nM
2 | O=C(c1ccc(F)c(F)c1Nc1ccc(I)cc1F)N1CC(O)([C@@H]2CCCCN2)C1 [Cobimetinib, cobimetinib] |  |  |  |  |  |  |  |  |  |  | IC50 (hERG channel): 500 nM
3 | CC(=O)Nc1cccc(-n2c(=O)n(C3CC3)c(=O)c3c(Nc4ccc(I)cc4F)n(C)c(=O)c(C)c32)c1 [GSK212, trametinib] | 10.56 ± 0.07 nM | 0.74 ± 0.01 nM | 1.78 nM | 1.45 ± 0.2 nM | no significant apoptosis-inducing effect | > 1000 nM | > 1000 nM | 45.4 ± 4.76 nM | 0.74 ± 0.02 nM | 0.6 ± 0.28 nM | apoptosis rate (COLO 205 cells; 20 nM): 47.0%; solubility property [1]: poor solubility; drug accumulation ([2]; ref Infante et al., 2012): ~6 fold; mean accumulation ratio (day15/day1) ([2]; repeat dose of 2 mg, ref Food and Drug Administration, 2013): ~6.0
4 | Cn1cnc2c(F)c(Nc3ccc(Br)cc3F)c(C(=O)NOCCO)cc21 [MEK162, binimetinib] |  |  |  |  |  |  |  |  |  |  | IC50 (MEK1/MAP2K1(h)): 224 ± 16.9 nM
5 | Cn1cnc2c(F)c(Nc3ccc(Br)cc3Cl)c(C(=O)NOCCO)cc21 [AZD6244, selumetinib] | 2310 ± 204 nM | 67.52 ± 0.07 nM | 301 ± 88.8 nM | 175 ± 19.3 nM | no significant apoptosis-inducing effect | > 50000 nM | > 50000 nM | 5730 ± 1030 nM | 54.3 ± 2.21 nM | 35.3 ± 20.9 nM | apoptosis rate (COLO 205 cells; 1 μM): 40.6%
